According to patent US20100185419A1, “ALGORITHM FOR DESIGNING IRREVERSIBLE INHIBITORS” (Avila Therapeutics, Inc., priority 2008, published 2010):
pEC50, pIC50: −log10 of the molar value. Read-outs that look alike come from different tables or passages of the source.

Assays:
[1] = biological target: CSF1R (FMS) (Homo sapiens, UniProt P07333); test: CSF1R inhibition assay (Z'-LYTE); assay type: biochemical; details: read-out: % inhibition of CSF1R
Experimental: Compounds were assayed as inhibitors of […] in a manner substantially similar to the method described by Invitrogen Corp (Invitrogen Corporation, 1600 Faraday Avenue, Carlsbad, Calif., CA) using the […] biochemical assay procedure or similar biochemical assay. The 2×CSF1R (FMS)/[…] Peptide Mixture was prepared in 50 mM HEPES pH 7.5, 0.01% BRIJ-35, 10 mM MgCl2, 1 mM EGTA. The final […] Kinase Reaction consisted of 0.2-67.3 ng CSF1R (FMS) and 2 μM […] Peptide in 50 mM HEPES pH 7.5, 0.01% BRIJ-35, 10 mM MgCl2, 1 mM EGTA. After the 1 hour Kinase Reaction incubation, 5 μL of a 1:128 dilution of Development Reagent B was added.

[2] = biological target: T1, c-KIT (Homo sapiens, UniProt P10721); test: cKIT inhibition assay (electrophoretic mobility shift); assay type: biochemical; set-up: purchased Millipore 14-559
Experimental: The reaction was started by adding the ATP and incubating for 1 hour at room temperature. […] Phosphorylated and unphosphorylated substrate was separated by charge using electrophoretic mobility shift.

[3] = biological target: CSF1R (Homo sapiens, UniProt P07333); test: CSF1R mass spectral analysis of tryptic digest; assay type: binding; details: 3 hrs at 10× excess, tryptic digest MALDI
Experimental: (§1) Iodoacetamide was used as the alkylating agent after compound incubation. For tryptic digests, a 2 μl aliquot (0.09 μg/μl) was diluted with 10 μl of 0.1% TFA prior to micro C18 Zip Tipping directly onto the MALDI target using alpha cyano-4-hydroxy cinnamic acid as the matrix (5 mg/ml in 0.1% TFA:Acetonitrile 50:50).
For tryptic digests, the instrument was set in Reflectron mode with a pulsed extraction setting of 1800. Calibration was done using the Laser Biolabs Pep Mix standard (1046.54, 1296.69, 1672.92, 2093.09, 2465.20). For CID/PSD analysis the peptide was selected using cursors to set ion gate timing and fragmentation occurred at a laser power about 20% higher and He was used as the collision gas for CID. Calibration for fragments was done using the P14R fragmentation calibration for the Curved field Reflectron. Database searching of the tryptic digest of CSF identified it correctly. […] PSD analysis of this peptide signal (1160.50) gave enough fragments to allow for a database MS/MS ion search which verified the sequence of this peptide.

[4] = biological target: T1, c-KIT; test: c-KIT mass spectral analysis of tryptic digest; assay type: binding; details: 3 hours at 10× excess, tryptic digest MALDI-TOF
Experimental: (§2) Iodoacetamide was used as the alkylating agent after compound incubation. For tryptic digests a 5 μl aliquot (14 pmols) was diluted with 10 ul of 0.1% TFA prior to micro C18 Zip Tipping directly onto the MALDI target using alpha cyano-4-hydroxy cinnamic acid as the matrix (5 mg/ml in 0.1% TFA:acetonitrile 50:50).
The tryptic digest was analyzed by mass spectrometer (MALDI-TOF).
as §1, with “incubation. […]” for “incubation.”, “digests” for “digests,”, “(3.3 pmols)” for “(0.09 μg/μl)”
For tryptic digests the instrument was set in Reflectron mode with a pulsed extraction setting of 2200. […] Calibration for fragments was done using the P14R fragmentation calibration for the Curved field Reflectron.

[5] = biological target: T2, Flt3 (Homo sapiens, UniProt P36888); test: Flt3 mass spectral analysis of tryptic digest; assay type: binding; details: 3 hrs at 100× excess, tryptic digest MALDI
T2 sequence (P36888 27-993): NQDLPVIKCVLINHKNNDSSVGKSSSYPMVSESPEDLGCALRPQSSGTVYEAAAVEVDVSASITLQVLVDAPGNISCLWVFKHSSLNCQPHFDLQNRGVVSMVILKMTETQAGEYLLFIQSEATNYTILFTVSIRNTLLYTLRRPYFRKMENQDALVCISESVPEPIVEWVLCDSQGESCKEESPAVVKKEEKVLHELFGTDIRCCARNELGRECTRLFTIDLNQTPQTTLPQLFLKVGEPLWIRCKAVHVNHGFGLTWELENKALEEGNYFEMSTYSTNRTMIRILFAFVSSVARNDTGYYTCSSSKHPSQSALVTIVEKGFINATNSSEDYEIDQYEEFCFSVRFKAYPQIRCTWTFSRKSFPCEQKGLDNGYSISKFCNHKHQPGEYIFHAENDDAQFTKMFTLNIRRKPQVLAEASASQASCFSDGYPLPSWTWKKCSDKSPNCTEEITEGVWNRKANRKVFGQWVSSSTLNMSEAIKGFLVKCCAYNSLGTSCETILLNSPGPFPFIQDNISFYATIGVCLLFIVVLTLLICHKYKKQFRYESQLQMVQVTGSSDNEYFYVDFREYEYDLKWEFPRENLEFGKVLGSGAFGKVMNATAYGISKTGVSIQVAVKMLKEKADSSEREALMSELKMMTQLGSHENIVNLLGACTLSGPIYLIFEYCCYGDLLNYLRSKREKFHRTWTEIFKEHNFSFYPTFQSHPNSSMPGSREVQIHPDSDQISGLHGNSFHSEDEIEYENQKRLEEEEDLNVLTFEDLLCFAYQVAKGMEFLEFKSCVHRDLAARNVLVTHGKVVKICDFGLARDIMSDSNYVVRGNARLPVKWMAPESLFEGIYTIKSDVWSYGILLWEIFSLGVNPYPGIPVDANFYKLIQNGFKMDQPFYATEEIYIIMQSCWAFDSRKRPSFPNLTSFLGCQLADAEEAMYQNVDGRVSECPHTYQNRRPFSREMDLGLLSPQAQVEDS
Experimental: as §2, with “Flt3 was incubated with Compound 4 for 3 hrs at 100× excess prior to tryptic digestion. Iodoacetamide” for “Iodoacetamide”, “ul” for “μl”, “(7” for “(14”, “TFA:Acetonitrile” for “TFA:acetonitrile”
The mass spec instrument was set in Reflectron mode with a pulsed extraction setting of 1800. Calibration was done using the Laser Biolabs Pep Mix standard (1046.54, 1296.69, 1672.92, 2093.09, 2465.20). For CID/PSD analysis the peptide was selected using cursors to set ion gate timing and fragmentation occurred at a laser power about 20% higher and He was used as the collision gas for CID. Calibration for fragments was done using the P14R fragmentation calibration for the Curved field Reflectron.

[6] = biological target: T2, Flt3; test: FLT3 biochemical assay (continuous-read kinase assay); set-up: purchased Invitrogen PV3182; details: 500 μM ATP; read-out: IC50 for inhibition of FLT3 phosphorylation
[7] = tested on: HCV RNA replicon; test: Replicon assay (luciferase, ET Huh7 cell line); details: Hepatitis C virus, Huh-7, 72 h, read-out: EC50 replicon assay
Experimental: The compounds were assayed to evaluate the antiviral activity and cytotoxicity of compounds using replicon-derived luciferase activity. This assay used the cell line ET (luc-ubi-neo/ET), which is a human Huh7 hepatoma cell line that contains an HCV RNA replicon with a stable luciferase (Luc) reporter and three cell culture-adaptive mutations.
The ET cell line was grown in Dulbecco's modified essential media (DMEM), 10% fetal bovine serum (FBS), 1% penicillin-streptomycin (pen-strep), 1% glutamine, 1% non essential amino acid, 400 μg/mL G418 in a 5% CO2 incubator at 37° C. All cell culture reagents were obtained from Invitrogen(Carlsbad). Cells were trypsinized (1% trypsin:EDTA) and plated out at 5×10^3 cells/well in white 96-well assay plates (Costar) dedicated to cell number (cytotoxicity) or antiviral activity assessments. Compounds were added at six 3-fold concentrations each and the assay was run in DMEM, 5% FBS, 1% pen-strep, 1% glutamine, 1% non essential amino acid. Human interferon alpha-2b (PBL Biolabs, New Brunswick, N.J.) was included in each run as a positive control compound. Cells were processed 72 hr post compound addition when the cells are still subconfluent. Antiviral activity was measured by analyzing replicon-derived luciferase activity using the Steady-Glo Luciferase Assay System (Promega, Madison, Wis.) according to manufacturer's instruction. The number of cells in each well was determined by Cell Titer Blue Assay (Promega).

[8] = biological target: T3, cKIT in GIST882 cells (Homo sapiens, UniProt P10721, K642E); test: GIST882 cellular assay with washout (western blot); assay type: cell-based; details: for cKIT autophosphorylation / downstream signaling of ERK: 1 micromolar
T3 construct: endogenous in cells; host or cells: GIST882 cells
Experimental: GIST882 cells were seeded in a 6 well plate at a density of 8×10^5 cells/well in complete media. The next day cells were treated with 1 uM compound diluted in complete media for 90 minutes. After 90 minutes, the media was removed and cells were washed with compound-free media. Cells were washed every 2 hours and resuspended in fresh compound-free media.

[9] = biological target: T4, Btk (Homo sapiens, UniProt Q06187); test: Omnia assay for potency against Btk; details: biochemical assay; read-out: IC50 Btk kinase
T4 construct: purchased Invitrogen
Experimental: The protocol below describes continuous-read kinase assays to measure inherent potency of compounds against active forms of Btk enzyme. The mechanics of the assay platform are best described by the vendor (Invitrogen, Carlsbad, Calif.) on the world wide web at invitrogen.com/site/us/en/home/Products-and-Services/Applications/Drug-Discovery/Target-and-Lead-Identification-and-Validation/KinaseBiology/KB-Misc/Biochemical-Assays/Omnia-Kinase-Assays.html. Briefly, 10× stocks of 5 nM Btk from Invitrogen, 1.13×40 μM ATP (AS001A) and 10 μM (ATP KMapp ˜[…]) Tyr-Sox conjugated peptide substrates (KCZ 1001) were prepared in 1× kinase reaction buffer consisting of 20 mM Tris, pH 7.5, 5 mM MgCl2, 1 mM EGTA, 5 mM β-glycerophosphate, 5% glycerol (10× stock, KBOO2A) and 0.2 mM DTT (DS001A).

[10] = biological target: HCV NS3/4A 1b protease WT (Hepatitis C virus genotype 1b, UniProt P26662); test: HCV Protease FRET Assay for wild type NS3/4A 1b enzyme (IC50); assay type: biochemical; details: 30 min pre-incubation
[11] = biological target: HCV NS3/4A 1b protease D168A (Hepatitis C virus genotype 1b, UniProt P26662, D1194A); test: HCV Protease FRET Assay for mutated NS3/4A 1b enzyme (IC50); assay type: biochemical; details: 30 min pre-incubation
Source text: 279, No. 17, pp 17508-17514.

[12] = biological target: HCV NS3/4A 1b protease (Hepatitis C virus genotype 1b, UniProt P26662); test: biochemical
Experimental: An HCV Protease FRET Assay for HCV NS3/4A 1b Enzyme (IC50_APP) was used. The following protocol was used to generate “apparent” IC50 (IC50_APP) values. […] Protease reactions were immediately started after enzyme addition with the addition of 45 μL of the FRET substrate and monitored for 60-90 minutes at λex485/λem520 in a Synergy4 plate reader from BioTek (Winooski, Vt.).

[13] = 1 uM for 90 minutes, then washed free of compound

T1 sequence (P10721 26-976): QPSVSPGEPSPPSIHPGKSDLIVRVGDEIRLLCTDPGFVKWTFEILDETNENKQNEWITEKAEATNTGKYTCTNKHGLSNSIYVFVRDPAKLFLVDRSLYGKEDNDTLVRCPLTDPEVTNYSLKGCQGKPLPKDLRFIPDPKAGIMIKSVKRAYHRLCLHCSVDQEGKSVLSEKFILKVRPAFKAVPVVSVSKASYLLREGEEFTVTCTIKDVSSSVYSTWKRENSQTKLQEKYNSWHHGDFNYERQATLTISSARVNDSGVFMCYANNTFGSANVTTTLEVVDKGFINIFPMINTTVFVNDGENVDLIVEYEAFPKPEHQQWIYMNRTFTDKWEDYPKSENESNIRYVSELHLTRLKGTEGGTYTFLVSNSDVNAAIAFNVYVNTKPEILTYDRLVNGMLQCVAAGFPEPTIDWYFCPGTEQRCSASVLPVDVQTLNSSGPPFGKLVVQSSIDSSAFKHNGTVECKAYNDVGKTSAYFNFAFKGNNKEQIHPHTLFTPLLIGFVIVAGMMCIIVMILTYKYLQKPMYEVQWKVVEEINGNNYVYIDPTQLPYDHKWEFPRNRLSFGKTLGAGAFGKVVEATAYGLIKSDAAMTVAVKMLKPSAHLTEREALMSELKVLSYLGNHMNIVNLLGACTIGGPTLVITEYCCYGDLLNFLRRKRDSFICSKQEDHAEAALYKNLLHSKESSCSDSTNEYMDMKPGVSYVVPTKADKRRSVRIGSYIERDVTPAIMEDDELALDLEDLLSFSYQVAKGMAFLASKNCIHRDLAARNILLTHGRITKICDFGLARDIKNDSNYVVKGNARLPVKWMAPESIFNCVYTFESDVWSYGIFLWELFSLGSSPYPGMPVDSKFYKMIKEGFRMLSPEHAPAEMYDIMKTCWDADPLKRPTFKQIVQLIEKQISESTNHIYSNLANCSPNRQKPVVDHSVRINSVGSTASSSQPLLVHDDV
T3 sequence (P10721 26-976 K642E): as the sequence (P10721 26-976) above, with K617E counted along it
Chain of HCV NS3/4A 1b protease WT (P26662 1658-1711): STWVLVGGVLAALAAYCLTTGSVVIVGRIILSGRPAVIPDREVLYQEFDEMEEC
Chain of HCV NS3/4A 1b protease WT (P26662 1027-1208): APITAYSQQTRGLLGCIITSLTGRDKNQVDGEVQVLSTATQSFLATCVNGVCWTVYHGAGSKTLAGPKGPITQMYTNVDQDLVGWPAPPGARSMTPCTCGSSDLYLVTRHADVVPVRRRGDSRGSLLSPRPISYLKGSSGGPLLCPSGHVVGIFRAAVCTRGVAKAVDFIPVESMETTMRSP
Chain of HCV NS3/4A 1b protease D168A (P26662 1027-1208 D1194A): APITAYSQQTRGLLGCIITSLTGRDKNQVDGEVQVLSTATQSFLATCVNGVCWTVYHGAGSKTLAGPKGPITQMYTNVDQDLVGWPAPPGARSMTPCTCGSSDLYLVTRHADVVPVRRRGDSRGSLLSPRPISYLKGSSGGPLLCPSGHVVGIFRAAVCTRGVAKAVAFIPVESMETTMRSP
Chain of HCV NS3/4A 1b protease D168A (P26662 1658-1711 partner limits assumed): as the sequence (P26662 1658-1711) above
Chain of CSF1R (FMS) (P07333 20-972): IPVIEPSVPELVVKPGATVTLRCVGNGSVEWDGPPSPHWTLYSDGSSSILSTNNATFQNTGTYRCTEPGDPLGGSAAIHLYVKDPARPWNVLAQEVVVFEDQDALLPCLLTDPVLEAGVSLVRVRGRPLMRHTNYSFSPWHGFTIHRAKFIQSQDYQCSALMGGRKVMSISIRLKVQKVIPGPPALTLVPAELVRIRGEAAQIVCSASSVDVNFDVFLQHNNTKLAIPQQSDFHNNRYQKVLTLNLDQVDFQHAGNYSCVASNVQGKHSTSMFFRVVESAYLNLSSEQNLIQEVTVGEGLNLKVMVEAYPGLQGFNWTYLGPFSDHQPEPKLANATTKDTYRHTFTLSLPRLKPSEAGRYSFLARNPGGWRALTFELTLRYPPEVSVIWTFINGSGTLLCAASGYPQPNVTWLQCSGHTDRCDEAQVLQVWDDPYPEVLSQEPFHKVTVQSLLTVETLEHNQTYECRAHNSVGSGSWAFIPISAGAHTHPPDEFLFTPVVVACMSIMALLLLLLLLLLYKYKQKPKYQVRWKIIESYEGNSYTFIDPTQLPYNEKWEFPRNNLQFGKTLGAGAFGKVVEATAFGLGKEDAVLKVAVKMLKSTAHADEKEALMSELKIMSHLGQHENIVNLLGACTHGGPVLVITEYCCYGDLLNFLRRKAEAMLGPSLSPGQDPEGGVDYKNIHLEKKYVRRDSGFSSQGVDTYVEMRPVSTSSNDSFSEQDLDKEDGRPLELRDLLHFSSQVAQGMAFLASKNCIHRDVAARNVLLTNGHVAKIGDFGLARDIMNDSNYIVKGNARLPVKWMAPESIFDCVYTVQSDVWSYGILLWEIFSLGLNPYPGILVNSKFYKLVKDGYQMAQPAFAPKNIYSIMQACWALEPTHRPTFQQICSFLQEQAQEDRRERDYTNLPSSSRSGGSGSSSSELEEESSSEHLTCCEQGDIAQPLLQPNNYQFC
Chain of HCV NS3/4A 1b protease (P26662 1027-1208): as the sequence (P26662 1027-1208) above
Chain of HCV NS3/4A 1b protease (P26662 1658-1711): as the sequence (P26662 1658-1711) above
T4 sequence (Q06187 whole entry): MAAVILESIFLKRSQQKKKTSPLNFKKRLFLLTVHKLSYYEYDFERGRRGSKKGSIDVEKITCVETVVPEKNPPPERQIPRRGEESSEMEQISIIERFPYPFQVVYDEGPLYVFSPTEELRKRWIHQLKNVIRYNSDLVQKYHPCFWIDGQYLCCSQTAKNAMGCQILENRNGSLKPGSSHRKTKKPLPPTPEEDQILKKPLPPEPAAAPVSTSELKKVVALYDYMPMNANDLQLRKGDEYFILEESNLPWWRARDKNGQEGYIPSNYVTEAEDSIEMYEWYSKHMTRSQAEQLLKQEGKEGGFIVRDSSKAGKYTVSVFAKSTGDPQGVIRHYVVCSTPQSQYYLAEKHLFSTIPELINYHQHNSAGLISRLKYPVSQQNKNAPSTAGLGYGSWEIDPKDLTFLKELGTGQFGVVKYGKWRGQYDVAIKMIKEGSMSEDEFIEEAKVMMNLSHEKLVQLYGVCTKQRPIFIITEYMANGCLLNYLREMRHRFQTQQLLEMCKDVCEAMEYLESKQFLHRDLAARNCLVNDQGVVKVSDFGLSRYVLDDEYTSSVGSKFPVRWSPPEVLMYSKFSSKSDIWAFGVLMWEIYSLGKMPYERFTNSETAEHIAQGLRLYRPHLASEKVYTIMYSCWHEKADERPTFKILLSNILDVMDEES
Chain of CSF1R (P07333 20-972): as the sequence (P07333 20-972) above

**Q.** Which inhibition at 10 µM ([1]; 10 μM compound) does the source give for `C=CC(=O)Nc1ccc(C(=O)Nc2ccc(C)c(Nc3nccc(-c4cccnc4)n3)c2)cc1` [Compound 1, 4-acrylamido-N-(4-methyl-3-(4-(pyridin-3-yl)pyrimidin-2-ylamino)phenyl)benzamide] here?
**A.** 72%

**Q.** And the inhibition at 1 µM ([2]; read-out: % Inhibition of c-KIT)?
**A.** 82%

**Q.** For `C=CC(=O)Nc1ccc(C(=O)Nc2ccc(C)c(Nc3nccc(-c4cccnc4)n3)c2)cc1C(F)(F)F` [Compound 2, 4-Acrylamido-N-(4-methyl-3-(4-pyridin-3-yl)pyrimidin-2-ylamino)phenyl-3-(trifluoromethyl)benzamide], which inhibition at 10 µM [1] is on record?
**A.** 89%

**Q.** What about the “covalent modification of CSF1R (modified peptide)” value [3] of the same compound?
**A.** NCIHR

**Q.** `Cc1ccc(C(=O)Nc2ccc(NC(=O)CCl)c(C(F)(F)F)c2)cc1Nc1nccc(-c2cccnc2)n1` [Compound 3] was tested. Which “covalent modification of c-KIT (site or peptide)” value [4] did it give?
**A.** Cys788 (major) and: Cys808 (minor)

**Q.** What does the source list for `C=CC(=O)Nc1ccc(Sc2nc(Nc3cc(C)n[nH]3)cc(N3CCN(C)CC3)n2)cc1` [Compound 4, N-(4-(4-(3-Methyl-1H-pyrazol-5-ylamino)-6-(4-methylpiperiazin-1-yl)pyrimidin-2ylthio)phenyl)acrylamide]?
**A.** covalent modification of Flt3 (modified peptide) [5]: ICDFGLAR with Compound 4 attached; pIC50 [6]: 8.66

**Q.** `C=CC(=O)NC[C@H](NC(=O)OC(C)(C)C)C(=O)N1C[C@H](Oc2cc(-c3ccccc3)nc3cc(OC)ccc23)C[C@H]1C(=O)N[C@]1(C(=O)NS(=O)(=O)c2ccccc2)C[C@H]1C=C` [Compound 6, N-[(1,1-dimethylethoxy)carbonyl]-3-[(2-propenoyl)amino]-L-alanyl-(4R)-4-[(7-methoxy-2-phenyl-4-quinolinyl)oxy]-L-prolyl-1-amino-2-ethenyl-N-(phenylsulfonyl)-(1R,2S)-cyclopropanecarboxamide] was tested. Which pEC50 [7] did it give?
**A.** 6.76

**Q.** Which “persistence of inhibition after washout” value [8, 13] does the source give for `C=CC(=O)Nc1ccc(NC(=O)Nc2ccc(Oc3ccnc(C(=O)NC)c3)cc2)cc1C(F)(F)F` [Compound 7, 4-(4-(3-(4-Acrylamido-3-(trifluoromethyl)phenyl)ureido)phenoxy)-N-methylpicolinamide] here?
**A.** at least 8 hours

**Q.** What about the cKIT autophosphorylation [8] of the same compound?
**A.** inhibited

**Q.** What about the “downstream signaling of ERK” value [8] of the same compound?
**A.** inhibited

**Q.** And the “covalent modification of c-KIT (site or peptide)” value [4]?
**A.** NCIHR

**Q.** And the pIC50 ([2]; inhibition of cKIT phosphorylation)?
**A.** 7.51

**Q.** `CCC(=O)Nc1cccc(Nc2cc(Nc3ccc(Oc4ccccc4)cc3)ncn2)c1` [Compound 9] was tested. Which pIC50 [9] did it give?
**A.** 5.07

**Q.** Which results are given for `C=C[C@@H]1C[C@]1(NC(=O)[C@@H]1C[C@@H](Oc2cc(-c3ccccc3)nc3cc(OC)ccc23)CN1C(=O)CNC(=O)CC)C(=O)NS(=O)(=O)c1ccccc1` [Compound 11, reference compound]?
**A.** pEC50 [7]: < 5.52; IC50 [10]: 165 nM; IC50 [11]: > 3000 nM

**Q.** With `C=CC(=O)NCC(=O)N1C[C@H](Oc2cc(-c3ccccc3)nc3cc(OC)ccc23)C[C@H]1C(=O)N[C@]1(C(=O)NS(=O)(=O)c2ccccc2)C[C@H]1C=C` [Compound 12, (2S,4R)-1-(2-acrylamidoacetyl)-4-(7-methoxy-2-phenylquinolin-4-yloxy)-N-((1R,2S)-1-(phenylsulfonylcarbamoyl)-2-vinylcyclopropyl)pyrrolidine-2-carboxamide] as the compound, how does the pEC50 [7] read?
**A.** 6.69

**Q.** What about the IC50 [10] of the same compound?
**A.** 0.3 nM

**Q.** What about the IC50 [11] of the same compound?
**A.** 17 nM

**Q.** With `C=CC1C[C@]1(NC(=O)[C@@H]1C[C@@H](Oc2cc(-c3ccccc3)nc3cc(OC)ccc23)CN1C(=O)C(NC(=O)OC(C)(C)C)C(C)C)C(=O)NS(=O)(=O)c1ccccc1` (stereo partly drawn) [Compound V-1, reference compound] as the compound, how does the pIC50 [12] read?
**A.** 9.40

**Q.** Which “inhibitory activity of ckit and downstream signaling after washout” value [8, 13] does the source give for `CNC(=O)c1cc(Oc2ccc(NC(=O)Nc3ccc(Cl)c(C(F)(F)F)c3)cc2)ccn1` [Sorafenib, sorafenib, reference compound] here?
**A.** overcome

**Q.** What about the cKIT autophosphorylation [8] of the same compound?
**A.** inhibited

**Q.** What about the “downstream signaling of ERK” value [8] of the same compound?
**A.** inhibited
